Source: PMC11177969, “Comprehensive Analyses of the Effects of the Small-Molecule Inhibitor of the UHM Domain in the Splicing Factor U2AF1 in Leukemia Cells” (Research Square, 2024)
Read-outs that look alike come from different tables or passages of the source.

Key:
PUF60-UHM = target: T1, PUF60-UHM (Homo sapiens, UniProt Q9UHX1); assay: HTRF assay; type: binding; conditions: Fig. 2C
T1 sequence (Q9UHX1 462-549 limits assumed): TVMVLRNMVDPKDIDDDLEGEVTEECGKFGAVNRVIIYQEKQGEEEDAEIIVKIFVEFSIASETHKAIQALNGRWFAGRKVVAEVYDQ
From the text: (§1) To determine the selectivity of SF1–8 against other homologous UHM domains, we measured the IC50 values of SF1–8 to RBM39-UHM, SPF45-UHM and PUF60-UHM using the HTRF assay.[42] […] In the chemical synthesis (Scheme S1), methylation on the pyrazole group in SF1–8 can occur at the N8 or N9 position (Fig.2C). Although the NMR spectra can be used to infer the methyl group position on the pyrazole, we determined the crystal structure of a SF1–8 precursor to clearly confirm the methyl group is at N9 in SF1–8 (Fig.2C). To further probe the interaction of SF1–8 with U2AF1-UHM, we synthesized SF1–8 analogs and developed the structure activity relationship (SAR) (Fig.2C). […] A longer alkyl group was tolerated at the N8 position but not at the N9 position. […] The crystal structure of a 7c precursor experimentally determined from SCXRD again confirmed the location of the propyl group (Fig. 2C).

RBM39-UHM = target: T2, RBM39-UHM (Homo sapiens, UniProt Q14498); assay: HTRF assay; type: binding; conditions: Fig. 2C; SD of 2 independent experiments in parentheses
T2 sequence (Q14498 445-508 limits assumed): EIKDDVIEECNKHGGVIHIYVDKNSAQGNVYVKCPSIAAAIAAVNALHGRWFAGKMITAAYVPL
From the text: as §1

SPF45-UHM = target: T3, SPF45-UHM (Homo sapiens, UniProt Q96I25); assay: HTRF assay; type: binding; conditions: Fig. 2C; SD of 2 independent experiments in parentheses
T3 sequence (Q96I25 306-385 limits assumed): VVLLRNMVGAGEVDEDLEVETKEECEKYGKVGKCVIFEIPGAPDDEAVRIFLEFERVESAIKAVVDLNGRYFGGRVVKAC
From the text: as §1

U2AF1-UHM [1] = target: T4, U2AF1-UHM (Homo sapiens, UniProt Q01081); assay: HTRF assay, inhibition of binding between U2AF1-UHM and U2AF2-ULM
T4 construct: we screened the CCG fragment library from University of Michigan against the U2AF1-UHM domain using the Thermal Shift Assay (TSA)
T4 sequence (Q01081 65-147 limits assumed): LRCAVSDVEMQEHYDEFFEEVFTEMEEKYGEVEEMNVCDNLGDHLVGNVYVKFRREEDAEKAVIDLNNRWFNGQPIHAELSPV
From the text: TSA data provided no information of the binding site in U2AF1-UHM. To identify the binding sites of both hits to U2AF1-UHM, we synthesized CCG211578 (named Hit1/SF1–8) and CCG210084 (named Hit2/9 in Fig.2C) and asked if they inhibited the binding between U2AF1-UHM and U2AF2-ULM using our previously developed HTRF assay.[42] […] The IC50 values of SF1–8 and Hit2 correlated with the ΔTm values observed in TSA. We have reported that the conserved Trp binding site in U2AF1-UHM dominated the binding affinity between U2AF2-ULM and U2AF1-UH.[42]

U2AF1-UHM [2] = target: T4, U2AF1-UHM; assay: Thermal Shift Assay (TSA) fragment library screening; type: binding; conditions: confirmatory screening in triplicate, read-out: ΔTm (melting temperature change) of U2AF1-UHM
Protocol: To develop a different targeting strategy, we assessed potential tractable binding sites in U2AF1 using computational analysis and determined that the UHM domain of U2AF1 was for identifying hits (Fig.S1).[42] To discover hits, we screened the CCG fragment library from University of Michigan against the U2AF1-UHM domain using the Thermal Shift Assay (TSA). An initial single concentration screening at 200 μM led to identify 149 compounds that gave positive shifts of the melting temperature (ΔTm) in U2AF1-UHM. These compounds were subject to a secondary confirmatory screening in triplicate at 200 μM.

K562-U2AF1^S34F = assay: Growth inhibition / cell viability (CellTiter-Glo); type: cell-based
From the text: (§2) Previous studies that introduced U2AF1^S34F in lung epithelial (HBEC3kt)[43], leukemia (K562)[38],[44],[45], and iPSC[37] cell lines have validated the function of U2AF1^S34F in these engineered cell lines while mutation of Q157 is less studied. We therefore focused our study on U2AF1^S34F and examined the effects of SF1–8 on a panel of leukemia cell lines including K562, U937, HL60 with isogenic overexpression of U2AF1^wt or U2AF1^S34F, K562 with isogenic overexpression of SRSF2^wt or SRSF2^P95H, and K562 with Crispr/Cas9 edited SF3B1^wt or SF3B1^E700K (denoted as K562-U2AF1^wt, K562-U2AF1^S34F, U937-U2AF1^wt, U937-U2AF1^S34F, HL60-U2AF1^wt, HL60-U2AF1^S34F, K562-SRSF2^wt, K562-SRSF2^P95H, K562-SF3B1^wt, K562-SF3B1^E700K). […] The data obtained from the engineered leukemia cell lines prompted us to query the activity of SF1–8 in primary MDS cells.
(§3) Figure 3. Growth inhibition activities of SF1–8 in U2AF1, SF3B1, SRSF2 mutant, wild-type leukemia cell lines (A) Dose dependent growth inhibition of U2AF1^S34F, SF3B1^E700K, SRSF2^P95H mutant and isogenic wild-type cell lines by the treatment of SF1–8. (B) Titration of SF1–8 against K562-U2AF1^wt, K562-U2AF1^S34F, MV4–11, HL60 cells using the CellTiter-Glo assay. (C) Toxicity of SF1–8 in human primary MDS cells (U2AF1^S34F) and healthy bone marrow cells.

K562-U2AF1^wt = assay: Growth inhibition / cell viability (CellTiter-Glo); type: cell-based
From the text: as §2, §3

HL-60 = assay: Growth inhibition titration (CellTiter-Glo); type: cell-based; conditions: Homo sapiens, native cell line carrying U2AF1^wt
From the text: as §2, §3

MV-4–11 = assay: Growth inhibition titration (CellTiter-Glo); type: cell-based; conditions: Homo sapiens, MV4-11; native cell line carrying U2AF1^wt
From the text: as §2, §3

HL60-U2AF1^S34F = assay: Dose dependent growth inhibition; type: cell-based; conditions: Fig. 3A
From the text: as §2, §3

HL60-U2AF1^wt = assay: Dose dependent growth inhibition; type: cell-based; conditions: Fig. 3A
From the text: as §2, §3

K562-SF3B1^E700K = assay: Dose dependent growth inhibition; type: cell-based; conditions: Fig. 3A
From the text: as §2, §3

K562-SF3B1^wt = assay: Dose dependent growth inhibition; type: cell-based; conditions: Fig. 3A
From the text: as §2, §3

K562-SRSF2^P95H = assay: Dose dependent growth inhibition; type: cell-based; conditions: Fig. 3A
From the text: as §2, §3

K562-SRSF2^wt = assay: Dose dependent growth inhibition; type: cell-based; conditions: Fig. 3A
From the text: as §2, §3

U937-U2AF1^S34F = assay: Dose dependent growth inhibition; type: cell-based; conditions: Fig. 3A
From the text: as §2, §3

U937-U2AF1^wt = assay: Dose dependent growth inhibition; type: cell-based; conditions: Fig. 3A
From the text: as §2, §3

[3] = tested on: bone marrow cells from an MDS specimen that harbored U2AF1^S34F; assay: Toxicity in primary MDS cells; type: cell-based; conditions: Homo sapiens, Bone marrow cell, U2AF1^S34F VAF 41%, read-out: viable cells
From the text: as §2, §3

healthy control cells = assay: Toxicity in healthy control cells; type: cell-based, human; conditions: as much as 10 μM
From the text: as §2, §3

[4] = tested on: bone marrow cells of healthy control; assay: Colony formation assay; type: cell-based, human; conditions: 1 to 20 μM
From the text: as §2

K562-U2AF1^S34F cells = assay: Western blots of select genes; type: cell-based; conditions: western blot
From the text: To understand the underlying mechanisms of the differential effects of SF1–8 on K562-U2AF1^S34F, we performed an RNA-seq experiment on K562-U2AF1^S34F cells treated with SF1–8 and control (Fig.4). […] When the 99 genes were mapped to KEGG pathways, the top six enriched pathways were protein digestion and absorption, extracellular matrix-receptor interaction, focal adhesion, PI3K-Akt signaling pathway, human papillomavirus infection, and AGE-RAGE signaling pathway (Fig.S2). To determine if the protein levels of these genes were affected by their mRNA changes, we performed the western blots of select genes. […] Because of the role U2AF1 in RNA splicing, we asked if analysis of the isoform pattern changes may provide insight to explain the different observations between RNA-seq and western blot data. In the transcript analysis, we identified low FPKM numbers of three BCL2 transcripts (Fig.S3) that explained the relatively low BCL2 protein levels in K562. A significant increase of the BCL-2b transcript was also found. […] Besides BCL2, BCLXL (encoded by BCL2L1) and MCL1 have isoforms (BCL-XS and MCL-1S) that had apoptotic functions. K562 cells expressed only the anti-apoptotic MCL1 transcript and the expression was not affected by SF1–8 (not shown). […] Another frequently studied gene involved in apoptosis regulation is survivin.[48],[49]
Figure 4. RNA-seq experiment of K562-U2AF1^S34F cells treated with SF1–8 and the western blot of select genes. […] (C) Western blots of c-CBL, ATF3, and BCL-2 in K562-U2AF1^wt, K562-U2AF1^S34F treated with SF1–8. (D) Heatmap of top 99 differentially regulated genes in K562-U2AF1^S34F treated with SF1–8.

[5] = Fig. 2C, SD of 2 independent experiments in parentheses, read-out: IC50 U2AF1

With `Cn1nc(O)cc1C1(C)CCNCC1` [8a] the IC50 (PUF60-UHM) was 550 µM, the IC50 (RBM39-UHM) was greater than 1000 µM and the IC50 (SPF45-UHM) was 473 µM.
`CCn1nc(C2(C)CCNCC2)cc1O` [7b] was tested, and the IC50 (U2AF1-UHM [1]; [5]) was 467 µM, the IC50 (PUF60-UHM) was 910 µM and the IC50 (RBM39-UHM) was greater than 1000 µM. It also gave an IC50 (SPF45-UHM) of 958 µM.
In the case of `Cn1nc(C2(C)CCNCC2)cc1O` [SF1–8], the ΔTm at 200 µM (U2AF1-UHM [2]) is reported as 2.02 °C, the IC50 (U2AF1-UHM [1]; [5]) is reported as 59.33 ± 0.02 µM and the “selectivity against three other UHM domains” value (U2AF1-UHM [1]; U2AF1-UHM vs RBM39-UHM, SPF45-UHM, PUF60-UHM) is reported as 4–12 fold. The IC50 (U2AF1-UHM [1]; representative titration curves, Fig. 2B, read-out: IC50 against U2AF1-UHM) was 59.3 µM, the IC50 (PUF60-UHM) was 523 µM and the IC50 (RBM39-UHM) was 221 µM. The IC50 (SPF45-UHM) was 748 µM, the “effect on cell viability” value (K562-U2AF1^S34F; Fig. 3A) was “selectively decreased the viability” and the IC50 (K562-U2AF1^S34F; dose titration, CellTiter-Glo) was 1.98 µM. The “effect on cell viability” value (K562-U2AF1^wt; Fig. 3A) was “but not their isogenic wild-type cells”, the “activity in dose titration” value (K562-U2AF1^wt; dose titration, CellTiter-Glo) was “no activity” and the IC50 (HL-60) was greater than 100 µM. For the same molecule, the IC50 (MV-4–11) was greater than 100 µM, the “effect on cell viability” value (HL60-U2AF1^S34F) was “reduced cell viability” and the “effect on cell viability” value (HL60-U2AF1^wt) was “reduced cell viability”. For the same molecule, the “effect on cell viability” value (K562-SF3B1^E700K) was “selectively decreased the viability”, the “effect on cell viability” value (K562-SF3B1^wt) was “but not their isogenic wild-type cells” and the “effect on cell viability” value (K562-SRSF2^P95H) was “no activity”. The “effect on cell viability” value (K562-SRSF2^wt) was “no activity”, the “effect on cell viability” value (U937-U2AF1^S34F) was “no activity” and the “effect on cell viability” value (U937-U2AF1^wt) was “no activity”. For the same molecule, the viability at 10 µM [3] was 20%, the “effect on viable cells” value (healthy control cells) was “did not significantly decrease 20% of viable cells” and the “toxicity in colony formation assay” value [4] was “no significant toxicity”. For the same molecule, the ATF-3 protein level (K562-U2AF1^S34F cells) was “increase of ATF-3 was confirmed”, the BCL2 protein level (K562-U2AF1^S34F cells) was “decreased BCL2” and the c-CBL protein level (K562-U2AF1^S34F cells) was “no change of c-CBL”.
Work on `CCC1(c2cc(O)nn2C)CCNCC1` [8e] yielded an IC50 (U2AF1-UHM [1]; [5]) of 46.5 µM, an IC50 (PUF60-UHM) of 592 µM and an IC50 (RBM39-UHM) of 335 µM. It also gave an IC50 (SPF45-UHM) of 179 µM.
`CCCn1nc(O)cc1C1(C)CCNCC1` [8c] gave an IC50 (U2AF1-UHM [1]; [5]) of 34.1 µM, an IC50 (PUF60-UHM) of 621 µM and an IC50 (RBM39-UHM) of 386 µM. For the same molecule, the IC50 (SPF45-UHM) was 362 µM.
`CCC1(c2cc(O)n(C)n2)CCNCC1` [7e] showed an IC50 (U2AF1-UHM [1]; [5]) of 383 µM, an IC50 (PUF60-UHM) greater than 1000 µM and an IC50 (RBM39-UHM) greater than 1000 µM. It also gave an IC50 (SPF45-UHM) of 519 µM.
